Experimental data taken from publication PMC3400893 (Clinical Pharmacology and Therapeutics, 2012).

How the values were obtained:
patients with T2DM [1] = assay: 28-day randomized placebo-controlled study: efficacy/pharmacodynamics; assay type: in vivo, human; conditions: for Decrease in FPG from baseline after correcting for changes in placebo values: after 28 days; for OGTT glucose excursions above baseline FPG lower than placebo: corrected for FPG at hour 0
[2] = 28-day study: plasma LX4211 pharmacokinetics; assay type: in vivo, human; conditions: for Tmax: both, human, plasma, oral
patients with T2DM [3] = assay: Single-dose three-way crossover study: pharmacodynamics; assay type: in vivo, human
healthy volunteers = assay: Phase I trial in healthy volunteers; assay type: in vivo, human; conditions: 300-mg dose, phase I trial (data not shown)
patients with T2DM [4] = assay: 28-day study: safety, adverse events and clinical laboratory values
humans = conditions: taken orally at high doses; ref [46]; cited from earlier work
[5] = ref [47],[48]; cited from earlier work
[6] = single 300-mg dose of any of the LX4211 formulations
[7] = 150 or 300 mg once daily for 28 days

With `CCOc1ccc(Cc2cc([C@@H]3O[C@H](SC)[C@@H](O)[C@H](O)[C@H]3O)ccc2Cl)cc1` [LX4211, (2S,3R,4R,5S,6R)-2-(4-chloro-3-(4-ethoxybenzyl)phenyl)-6-(methylthio)tetrahydro-2H-pyran-3,4,5-triol] the “FPG reduction from baseline” value (patients with T2DM [1]; 150 mg once daily, day 7, placebo 9 mg/dl increase) was 30 mg/dL, the “Decrease in FPG from baseline after correcting for changes in placebo values” (patients with T2DM [1]; 150 mg) was 39 mg/dL and the “Net 24-h UGE increase relative to placebo” value (patients with T2DM [1]; 150 mg, day 1) was 44 g/day. For the same compound, the “OGTT glucose AUC (hour 0 to 4) lower than placebo” value (patients with T2DM [1]; 150 mg, day 2) was 30%, the “OGTT glucose AUC (hour 0 to 4) lower than placebo” value (patients with T2DM [1]; 150 mg, day 13) was 35% and the “OGTT glucose AUC (hour 0 to 4) lower than placebo” value (patients with T2DM [1]; 150 mg, day 27) was 38%. For the same compound, the “OGTT glucose excursions above baseline FPG lower than placebo” value (patients with T2DM [1]; 150 mg, day 27) was 46%, the “Decrease from baseline HbA1c after correcting for changes in placebo values” (patients with T2DM [1]; 150 mg, day 28) was 0.66 and the “Net 24-h UGE increase relative to placebo” value (patients with T2DM [1]; 150 mg, day 28) was 37 g/day. The “Decrease in FPG from baseline after correcting for changes in placebo values” (patients with T2DM [1]; 300 mg) was 55 mg/dL, the “Net 24-h UGE increase relative to placebo” value (patients with T2DM [1]; 300 mg, day 1) was 65 g/day and the “OGTT glucose AUC (hour 0 to 4) lower than placebo” value (patients with T2DM [1]; 300 mg, day 2) was 30%. The “OGTT glucose AUC (hour 0 to 4) lower than placebo” value (patients with T2DM [1]; 300 mg, day 13) was 36%, the “OGTT glucose AUC (hour 0 to 4) lower than placebo” value (patients with T2DM [1]; 300 mg, day 27) was 39% and the “OGTT glucose excursions above baseline FPG lower than placebo” value (patients with T2DM [1]; 300 mg, day 27) was 46%. The “Decrease from baseline HbA1c after correcting for changes in placebo values” (patients with T2DM [1]; 300 mg, day 28) was 0.76, the “Net 24-h UGE increase relative to placebo” value (patients with T2DM [1]; 300 mg, day 28) was 48 g/day and the “Amount of glucose excreted in the first 8 h vs the period spanning 8–24 h” value (patients with T2DM [1]; LX4211-treated groups) was “comparable”. The “Total GLP-1 levels after meals” value (patients with T2DM [1]; LX4211-treated groups, day 1 (similar on day 28), post hoc analysis) was “nonsignificant increase”, the “Mean serum triglyceride (TG) level (fell to within the normal range)” value (patients with T2DM [1]; both LX4211-treated groups (150 and 300 mg), by day 14) was under 151 mg/dL and the “Mean homeostasis model assessment of insulin resistance vs placebo” value (patients with T2DM [1]; both LX4211 groups, day 27) was “significantly lower”. For the same compound, the “Serum TG vs placebo” value (patients with T2DM [1]; both doses, post hoc analysis) was “statistically significant TG reductions”, the “24-h UGE vs placebo” value (patients with T2DM [1]; both treatment groups, days 1, 14 and 28) was “significantly increased” and the “2-h postprandial glucose (PPG) levels vs placebo” value (patients with T2DM [1]; each treatment group, days 1, 7, 21 and 28) was “significantly lowered”. The “Patients with HbA1c levels ≤7.0%” value (patients with T2DM [1]; patients who received LX4211 (150 or 300 mg), day 28, placebo 18%) was 50%, the “Time after dosing at which Cmax appeared” value ([2]; 150 and 300 mg, oral liquid) was 0.5 to 2.0 h and the “Dose proportionality of increases in Cmax and AUC” value ([2]; 150 vs 300 mg) was “slightly more than dose-proportional”. It also gave a Steady state reached ([2]; based on Cmax, AUC0–tau, Cmin, possibly even by day 7) of at most 14 days, a Tmax ([2]; Median tmax, days 14 and 28, the two dose groups) of 1 to 1.5 h and a Tmax ([2]; tmax, individual values, the two dose groups) of 0.48 to 2.02 h. The “Time at which plasma concentrations were detected” value ([2]; each LX4211 dose, oral liquid) was at most 15 min, the “Glucagon values vs day −1” value (patients with T2DM [3]; single 300-mg dose) was “not altered” and the “Plasma insulin between 0 and 13 h vs day −1” value (patients with T2DM [3]; [6]) was “significantly decreased”. For the same compound, the “Total GLP-1 between 0 and 13 h vs day −1” value (patients with T2DM [3]; [6]) was “significantly increased”, the “Total PYY between 0 and 13 h vs day −1” value (patients with T2DM [3]; [6]) was “significantly increased” and the “UGE over the next 24 h vs pretreatment day (day −1)” value (patients with T2DM [3]; [6]) was “significantly increased”. The “Tolerability and glycosuric effect” value (healthy volunteers) was “well tolerated and produced a maximal glycosuric effect”, the “Renal toxicity (laboratory data)” value (patients with T2DM [4]; [7]) was “no evidence of renal toxicity” and the “Treatment-emergent urinary tract infections, genital infections, CV events, episodes of hypoglycemia” value (patients with T2DM [4]; [7]) was “no treatment-emergent urinary tract infections, genital infections, CV events, or episodes of hypoglycemia”. For the same compound, the “24-h urine volume relative to placebo” value (patients with T2DM [4]; LX4211-treated groups, day 1) was “slight but nonsignificant increase”, the Urinary calcium excretion (patients with T2DM [4]; LX4211-treated groups, days 1, 14, 28) was “at no time during the study was urinary calcium excretion increased” and the Safety and tolerability (patients with T2DM [4]; at the doses and schedule employed (150 or 300 mg once daily, 28 days)) was “safe and well tolerated”. For the same compound, the “Urinary sodium and chloride excretion relative to placebo” value (patients with T2DM [4]; day 1, statistically significant in the 300 mg group) was “modest increases” and the “Frequency of gastrointestinal side effects relative to placebo” value (patients with T2DM [4]; even after challenge with 75 g of glucose during OGTTs) was “did not observe an increase”.

In the case of `O=C(CCc1ccc(O)cc1)c1c(O)cc(O)cc1O[C@@H]1O[C@H](CO)[C@@H](O)[C@H](O)[C@H]1O` [Phlorizin, phlorizin], the Nausea (humans) is listed as “induces nausea” and the “Conversion in the small intestine” value [5] is listed as “rapidly converted to phloretin”.
